Target: T1, IRAK4 (Homo sapiens, UniProt Q9NWZ3)
T1 construct: endogenous in cells; host or cells: OCI-LY10
T1 sequence (Q9NWZ3 1-460): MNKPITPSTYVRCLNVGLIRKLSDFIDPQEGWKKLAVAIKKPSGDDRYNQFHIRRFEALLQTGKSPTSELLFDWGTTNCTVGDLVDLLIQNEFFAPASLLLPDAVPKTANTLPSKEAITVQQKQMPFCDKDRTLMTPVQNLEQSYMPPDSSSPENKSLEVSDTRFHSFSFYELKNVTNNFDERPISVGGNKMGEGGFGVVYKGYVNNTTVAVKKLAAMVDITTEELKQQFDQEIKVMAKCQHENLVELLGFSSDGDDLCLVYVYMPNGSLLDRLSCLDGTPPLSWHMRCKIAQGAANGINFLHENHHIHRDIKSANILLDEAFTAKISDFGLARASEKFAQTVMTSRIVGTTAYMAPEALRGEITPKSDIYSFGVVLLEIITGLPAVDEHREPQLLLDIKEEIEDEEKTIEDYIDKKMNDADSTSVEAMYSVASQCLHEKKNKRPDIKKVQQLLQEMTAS
Assay: IRAK4 MSD Degradation in OCI-LY10
Type: cell-based
Conditions: OCI-LY10 cells, Meso Scale Discovery, incubated 4 to 24 hours
Outline: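 IRAK4 degradation was quantified by Meso Scale electrochemiluminescence (anti-IRAK4 capture and detection antibodies) in lysates of treated OCI-LY10 cells. Compounds were dosed at 8 concentrations (1:3 dilutions, top 1 to 10 μM) for 4 to 24 h; DC50 derived by three-parameter logistic fitting.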

| SMILES | DC50 [nM] |
| --- | --- |
| COc1cc2nc([C@H]3CC[C@H](CN4CC5(CC(CCNc6cccc7c6C(=O)N(C6CCC(=O)NC6=O)C7=O)C5)C4)CC3)cn2cc1NC(=O)c1cccc(C(F)(F)F)n1 (stereo partly drawn) [I-10] | 50 to 100 |
| Cn1c(=O)n(C2CCC(=O)NC2=O)c2ccc(F)c(C3CCN(C[C@H]4C[C@H](n5cc6cc(NC(=O)c7cccc(C(F)(F)F)n7)c(Cl)cc6n5)C4)CC3)c21 (stereo partly drawn) [I-142] | 10 to 50 |
| COc1cc2nn(CCN(C)C3CCN(c4cccc5c4n(C)c(=O)n5C4CCC(=O)NC4=O)CC3)cc2cc1NC(=O)c1cccc(C(F)(F)F)n1 (stereo not drawn) [I-20, N-[2-[2-[[1-[1-(2,6-dioxo-3-piperidyl)-3-methyl-2-oxo-benzimidazol-4-yl]-4-piperidyl]-methyl-amino]ethyl]-6-methoxy-indazol-5-yl]-6-(trifluoromethyl)pyridine-2-carboxamide] | > 200 |
| COc1cc2nn([C@H]3CC[C@H](CN(C)C4CCN(c5cc(C)cc6c5n(C)c(=O)n6C5CCC(=O)NC5=O)CC4)CC3)cc2cc1NC(=O)c1cccc(C(F)(F)F)n1 (stereo partly drawn) [I-56] | 10 to 50 |
| Cn1c(=O)n(C2CCC(=O)NC2=O)c2cccc(N3CCN(C[C@H]4CC[C@H](n5cc6cc(NC(=O)c7cccc(C(F)(F)F)n7)c(Cl)cc6n5)CC4)CC3)c21 (stereo partly drawn) [I-360] | 10 to 50 |
| CC(C)Nc1c(C(=O)N[C@H]2CC[C@H](CN3CCN(c4cccc5c4n(C)c(=O)n5C4CCC(=O)NC4=O)CC3)CC2)cnc2c1Oc1ccc(C#N)cc1O2 (stereo partly drawn) [I-410] | > 200 |
| N#Cc1cnc2c(C(=O)Nc3ccc4nn([C@H]5CC[C@H](CN6CCC(c7ccc8c(N9CCC(=O)NC9=O)cncc8c7)CC6)CC5)cc4c3)cnn2c1 [I-170, 6-Cyano-N-[2-[4-[[4-[4-(2,4-dioxohexahydropyrimidin-1-yl)-7-isoquinolyl]-1-piperidyl]methyl]cyclohexyl]indazol-5-yl]pyrazolo[1,5-a]pyrimidine-3-carboxamide] | > 200 |
| CC(C)(O)c1cc2nc([C@H]3CC[C@H](C(=O)N4CCN(CCCNc5cccc6c5C(=O)N(C5CCC(=O)NC5=O)C6=O)CC4)CC3)sc2cc1NC(=O)c1cncc(C#N)c1 (stereo partly drawn) [I-451] | 50 to 100 |
| COc1cc2c(cc1NC(=O)c1cccc(C(F)(F)F)n1)cc([C@H]1CC[C@H](CN(C)C3CCN(c4cccc5c4n(C)c(=O)n5C4CCC(=O)NC4=O)CC3)CC1)n2C (stereo partly drawn) [I-41] | > 200 |
| CN(C)c1cc2nn([C@H]3CC[C@H](CN4CCN(c5cccc6c5n(C)c(=O)n6C5CCC(=O)NC5=O)CC4)CC3)cc2cc1NC(=O)c1cccc(C(F)(F)F)n1 (stereo partly drawn) [I-388] | 10 to 50 |
| Cn1c(=O)n(C2CCC(=O)NC2=O)c2cccc(N3CCN(C[C@H]4CC[C@H](n5cc6cc(NC(=O)c7cccc(C(F)(F)F)n7)c(C7CC7)cc6n5)CC4)CC3)c21 (stereo partly drawn) [I-296] | 10 to 50 |
| Cn1c(=O)n(C2CCC(=O)NC2=O)c2cccc(C3CCN(C(=O)[C@H]4CC[C@H](n5cc6cc(NC(=O)c7cccc(C(F)(F)F)n7)ccc6n5)CC4)CC3)c21 (stereo partly drawn) [I-94, N-[2-[4-[4-[1-(2,6-dioxo-3-piperidyl)-3-methyl-2-oxo-benzimidazol-4-yl]piperidine-1-carbonyl]cyclohexyl]indazol-5-yl]-6-(trifluoromethyl)pyridine-2-carboxamide] | > 200 |
| CC(C)Nc1cc(-n2ccc3cc(C(F)(F)F)cnc32)ncc1C(=O)N[C@H]1CC[C@H](CN2CCN(c3ccc4c(c3)n(C)c(=O)n4C3CCC(=O)NC3=O)CC2)CC1 (stereo partly drawn) [I-374] | > 200 |
| O=C1CCN(c2cncc3cc(C4CCN(C[C@H]5CC[C@H](c6nc7ccc(NC(=O)c8cccc(C(F)(F)F)n8)cc7s6)CC5)CC4)ccc23)C(=O)N1 [I-181] | > 200 |
| COc1cc2nn([C@H]3CC[C@H](CN(C)C4CCN(c5cccc6c(N7CCC(=O)NC7=O)cncc56)CC4)CC3)cc2cc1NC(=O)c1cncc(Cl)c1 [I-117] | 50 to 100 |
| COc1cc2nn([C@H]3CC[C@H](CN4CCN(c5ccc(N6CCC(=O)NC6=O)cn5)CC4)CC3)cc2cc1NC(=O)c1cccc(C(F)(F)F)n1 [I-313] | > 200 |
| CN(CCNc1cccc2c1C(=O)N(C1CCC(=O)NC1=O)C2=O)C[C@H]1CC[C@H](c2nc3cc(C(C)(C)O)c(NC(=O)c4cccc(C(F)(F)F)n4)cc3s2)CC1 (stereo partly drawn) [I-492] | 10 to 50 |
| COc1ccc2c(c1C1CCN(C[C@H]3CC[C@H](n4cc5cc(NC(=O)c6cccc(C(F)(F)F)n6)ccc5n4)CC3)CC1)n(C)c(=O)n2C1CCC(=O)NC1=O (stereo partly drawn) [I-75] | 10 to 50 |
| CC(C)Nc1c(C(=O)N[C@H]2CC[C@H](CN3CCC(c4cccc5c(N6CCC(=O)NC6=O)cncc45)CC3)CC2)cnc2c1Oc1ccc(C#N)cc1O2 [I-310] | > 200 |
| COc1cc2nn([C@H]3CC[C@H](CN4CCC(c5cccc6c5n(C)c(=O)n6C5CCC(=O)NC5=O)CC4)CC3)cc2cc1NC(=O)c1cc(Cl)cnn1 (stereo partly drawn) [I-135] | > 200 |
| CN(CCCO[C@H]1C[C@H](Nc2cccc3c2C(=O)N(C2CCC(=O)NC2=O)C3=O)C1)C[C@H]1CC[C@H](n2cc3cc(NC(=O)c4cccc(C(F)(F)F)n4)ncc3n2)CC1 (stereo partly drawn) [I-353] | > 200 |
| COc1cc2nn([C@H]3CC[C@H](CN4CCC(c5ccc6c(c5)n(C)c(=O)n6C5CCC(=O)NC5=O)CC4)CC3)cc2cc1NC(=O)c1cncc(C#N)c1 (stereo partly drawn) [I-169] | > 200 |
| Cn1c(=O)n(C2CCC(=O)NC2=O)c2ccc(Cl)c(C3CCN(C[C@H]4C[C@H](n5cc6cc(NC(=O)c7cccc(C(F)(F)F)n7)c(Cl)cc6n5)C4)CC3)c21 (stereo partly drawn) [I-144] | 50 to 100 |
| Cn1c(=O)n(C2CCC(=O)NC2=O)c2cc(Cl)cc(C3CCN(C[C@H]4CC[C@H](n5cc6cc(NC(=O)c7cccc(C(F)(F)F)n7)c(F)cc6n5)CC4)CC3)c21 (stereo partly drawn) [I-72] | 10 to 50 |
| CC(C)(O)c1cc2nc([C@H]3CC[C@H](C(=O)N4CCC5(CC4)CC(CCNc4cccc6c4C(=O)N(C4CCC(=O)NC4=O)C6=O)C5)CC3)sc2cc1NC(=O)c1cccc(C(F)(F)F)n1 (stereo partly drawn) [I-486] | 100 to 200 |
| COc1cc2nn([C@H]3C[C@H](CN4CCC(c5ccc6c(N7CCC(=O)NC7=O)cncc6c5)CC4)C3)cc2cc1NC(=O)c1cccc(C(F)(F)F)n1 [I-119] | > 200 |
| Cc1cccc(C(=O)Nc2cc3sc([C@H]4CC[C@H](CN5C[C@H]6C[C@@H]5CN6CCCNc5cccc6c5C(=O)N(C5CCC(=O)NC5=O)C6=O)CC4)nc3cc2C(C)(C)O)n1 (stereo partly drawn) [I-432] | 100 to 200 |
| COc1cc2nn([C@H]3CC[C@H](CN4CCC(c5cc(C)cc6c5n(C)c(=O)n6C5CCC(=O)NC5=O)CC4)CC3)cc2cc1NC(=O)c1cccc(C(F)(F)F)n1 (stereo partly drawn) [I-35] | < 10 |
| COc1cc2nn([C@H]3CC[C@H](CN4CC=C(c5cccc6c(N7CCC(=O)NC7=O)cncc56)CC4)CC3)cc2cc1NC(=O)c1cccc(C(F)(F)F)n1 [I-357] | < 10 |

The next lines start with the values.

| DC50 [nM] | SMILES |
| --- | --- |
| < 10 | COc1cc2nn([C@H]3CC[C@H](CN4CCC(c5c(OC)ccc6c5n(C)c(=O)n6C5CCC(=O)NC5=O)CC4)CC3)cc2cc1NC(=O)c1cncc(Cl)c1 (stereo partly drawn) [I-111] |
| < 10 | COc1cc2nn([C@H]3CC[C@H](CN4CC=C(c5ccc6c(c5)n(C)c(=O)n6C5CCC(=O)NC5=O)C4)CC3)cc2cc1NC(=O)c1cccc(C(F)(F)F)n1 (stereo partly drawn) [I-366] |
| < 10 | CSc1cc2nn([C@H]3CC[C@H](CN4CCN(c5cccc6c5n(C)c(=O)n6C5CCC(=O)NC5=O)CC4)CC3)cc2cc1NC(=O)c1cccc(C(F)(F)F)n1 (stereo partly drawn) [I-307] |
| < 10 | Cn1c(=O)n(C2CCC(=O)NC2=O)c2cccc(C3CCN(C[C@H]4CC[C@H](n5cc6cc(NC(=O)c7cccc(C(F)(F)F)n7)ccc6n5)CC4)CC3)c21 (stereo partly drawn) [I-57] |
| < 10 | COc1cc2nn([C@H]3CC[C@H](CN4C5CCC4CN(c4cccc6c4n(C)c(=O)n6C4CCC(=O)NC4=O)C5)CC3)cc2cc1NC(=O)c1cccc(C(F)(F)F)n1 (stereo partly drawn) [I-167] |
| < 10 | COc1cc2nn([C@H]3CC[C@H](CN(C)[C@H]4CC[C@@H](c5cccc6c5n(C)c(=O)n6C5CCC(=O)NC5=O)CC4)CC3)cc2cc1NC(=O)c1cccc(C(F)(F)F)n1 (stereo partly drawn) [I-6, N-[2-[4-[[[4-[1-(2,6-dioxo-3-piperidyl)-3-methyl-2-oxo-benzimidazol-4-yl]cyclohexyl]-methyl-amino]methyl]cyclohexyl]-6-methoxy-indazol-5-yl]-6-(trifluoromethyl)pyridine-2-carboxamide] |
| < 10 | COc1cc2nn([C@H]3CC[C@H](CN4C5CC4CN(c4cccc6c(N7CCC(=O)NC7=O)cncc46)C5)CC3)cc2cc1NC(=O)c1cccc(C(F)(F)F)n1 [I-220] |
| < 10 | Cc1cc2nn([C@H]3CC[C@H](CN4CCC(c5cccc6c5n(C)c(=O)n6C5CCC(=O)NC5=O)CC4)CC3)cc2cc1NC(=O)c1cccc(C(F)(F)F)n1 (stereo partly drawn) [I-70] |
| < 10 | COc1cc(NC(=O)c2cccc(C(F)(F)F)n2)cc2cn([C@H]3CC[C@H](CN4CCC(c5cccc6c5n(C)c(=O)n6C5CCC(=O)NC5=O)CC4)CC3)nc12 (stereo partly drawn) [I-176] |
| < 10 | Cn1c(=O)n(C2CCC(=O)NC2=O)c2cccc(C3CCN(C[C@H]4CC[C@H](n5cc6cc(NC(=O)c7cncc(C(F)(F)F)n7)c(F)cc6n5)CC4)CC3)c21 (stereo partly drawn) [I-45] |
| < 10 | COc1cc2nn([C@H]3CC[C@H](CN4[C@@H]5C[C@H]4CN(c4cccc6c4n(C)c(=O)n6C4CCC(=O)NC4=O)C5)CC3)cc2cc1NC(=O)c1cccc(C(F)(F)F)n1 (stereo partly drawn) [I-158] |
| < 10 | COc1ccc2c(c1C1CCN(C[C@H]3CC[C@H](n4cc5cc(NC(=O)c6cccc(C#N)n6)ccc5n4)CC3)CC1)n(C)c(=O)n2C1CCC(=O)NC1=O (stereo partly drawn) [I-200] |
| < 10 | Cn1c(=O)n(C2CCC(=O)NC2=O)c2ccc(F)c(C3CCN(C[C@H]4C[C@H](n5cc6cc(NC(=O)c7cccc(C(F)(F)F)n7)ccc6n5)C4)CC3)c21 (stereo partly drawn) [I-151] |

— patent US12150995B2, “IRAK degraders and uses thereof” (Kymera Therapeutics, Inc., priority 2020, dated 2024)
